ChEMBL document CHEMBL1132949, “Conceptually new 20-epi-22-oxa sulfone analogues of the hormone 1alpha,25-dihydroxyvitamin D(3): synthesis and biological evaluation” (2000)

Tests used:
[1] = molecular target: T1, Vitamin D3 receptor (Homo sapiens) (UniProt P11473); assay: Binding affinity to Vitamin D3 receptor relative to 1,25D3
T1 sequence (whole entry): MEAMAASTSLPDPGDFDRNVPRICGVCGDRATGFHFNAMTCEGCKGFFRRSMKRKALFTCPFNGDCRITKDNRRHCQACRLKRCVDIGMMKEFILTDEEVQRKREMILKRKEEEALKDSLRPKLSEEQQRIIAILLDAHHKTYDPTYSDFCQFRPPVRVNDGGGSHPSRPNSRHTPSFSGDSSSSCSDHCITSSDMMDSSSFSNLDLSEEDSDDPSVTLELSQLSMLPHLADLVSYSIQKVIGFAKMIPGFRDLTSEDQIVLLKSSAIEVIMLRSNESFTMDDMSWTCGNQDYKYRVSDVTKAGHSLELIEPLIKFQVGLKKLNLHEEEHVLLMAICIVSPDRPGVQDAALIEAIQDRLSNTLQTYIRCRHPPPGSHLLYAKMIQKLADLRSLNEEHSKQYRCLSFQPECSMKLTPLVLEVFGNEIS

[2] = In vitro vitamin D receptor (VDR)-mediated transcriptional potency in rat osteosarcoma ROS 17/2.8 cells; assay type: functional; details: read-out: ED50 (the source's name)
MCF7 = assay: In vitro activity on human breast adenocarcinoma cell line MCF-7 proliferation; assay type: functional; details: read-out: ED50 (the source's name)
PBMC = assay: In vitro inhibition of phytohemagglutininin-induced stimulation of human peripheral blood mononuclear cells proliferation; assay type: functional; details: read-out: ED50 (the source's name)

Binding affinity [1] [%] | EC50 [2] [nM] | EC50 (MCF7) [nM] | Structure (SMILES) | EC50 (PBMC) [nM]
0.4 | > 100 |  | C=C1/C(=C\C=C2/CCC[C@]3(C)[C@@H]([C@@H](C)OCCCS(=O)(=O)C(C)(C)C)CC[C@@H]23)C[C@@H](O)C[C@@H]1O | 
26 | 1.6 | 9.6 | C=C1/C(=C\C=C2/CCC[C@]3(C)[C@@H]([C@@H](C)OCCCS(=O)(=O)C(C)(C)C)CC[C@@H]23)C[C@H](O)C[C@H]1O | 8.4
 |  | 0.27 | C=C1/C(=C\C=C2/CCC[C@]3(C)[C@@H]([C@@H](C)OCCCC(O)(CC)CC)CC[C@@H]23)C[C@@H](O)C[C@@H]1O [LEXACALCITOL] | 
